From patent publication US20060148730A1, “Method of treating tuberculosis” (priority 2003, published 2006) come the findings set out here.

Converted amounts (≈) assume the structure as drawn.

One experiment relates to M. tuberculosis H37Rv. The experiment in a line: MIC vs. M. tuberculosis H37Rv, microplate Alamar Blue assay (MABA). The note with it: Mycobacterium tuberculosis, H37RV, Table 4; read-out: MIC. It is filed as cell-based.
With `CC[C@H]1OC(=O)[C@H](C)[C@@H](OC2CC(C)(OC)C(OC(=O)c3ccccc3)C(C)O2)[C@H](C)[C@@H](OC2OC(C)CC(N(C)C)C2O)[C@](C)(OC)C[C@@H](C)C(=O)[C@H](C)[C@H]2N(NCCCc3ccnc4ccccc34)C(=O)O[C@]12C` (stereo partly shown) [Compound 1SH53a], the MIC (in general, the smallest concentration in the dilution series that meets the test's criterion for growth inhibition) is 1.69 µM (≈ 1.79 µg/mL).

As to `CC[C@H]1OC(=O)[C@H](C)[C@@H](OC2CC(C)(OC)C(OC(=O)c3ccccc3)C(C)O2)[C@H](C)[C@@H](OC2OC(C)CC(N(C)C)C2OC(=O)c2ccccc2)[C@](C)(OC)C[C@@H](C)C(=O)[C@H](C)[C@H]2N(NCCCc3ccnc4ccccc34)C(=O)O[C@]12C` (stereo partly shown) [Compound 1SH53b], the MIC was found to be 11 µM (≈ 12.8 µg/mL).

Consider `CC[C@H]1OC(=O)[C@H](C)C(O[C@H]2CC(C)(OC)[C@@H](OC(=O)Nc3ccccc3)[C@H](C)O2)[C@H](C)[C@@H](O[C@@H]2O[C@H](C)C[C@H](N(C)C)[C@H]2O)[C@](C)(OC)C[C@@H](C)C(=O)[C@H](C)[C@@H](O)[C@]1(C)O` (stereo partly shown) [Compound 1SH63], for which the MIC was found to be 16 µM (≈ 13.9 µg/mL).

Staying with this experiment, now noted: Mycobacterium tuberculosis, H37RV, Table 5; read-out: MIC.
Consider `CC[C@H]1OC(=O)[C@H](C)[C@@H](O)[C@H](C)[C@@H](OC2OC(C)CC(N(C)C)C2OC(=O)Nc2ccccc2)[C@](C)(OC)C/C(C)=C2/O[C@@]1(C)C=C2C` (stereo partly shown) [Compound 1GYG9], for which the MIC worked out at 16 µM (≈ 10.8 µg/mL).

The experiment is the same for the next values; noted with them: Table 3; parallel-synthesis carbazate library products, SPE purified; read-out: MIC.
As for `CC[C@H]1OC(=O)[C@H](C)[C@@H](O[C@H]2CC(C)(OC)[C@@H](O)[C@H](C)O2)[C@H](C)[C@@H](O[C@@H]2O[C@H](C)C[C@H](N(C)C)[C@H]2O)[C@](C)(OC)C[C@@H](C)C(=O)[C@H](C)[C@H]2N(NCCCc3ccccc3)C(=O)O[C@]12C` (stereo partly shown) [A2′], the MIC is given as 10 µM (≈ 9.06 µg/mL).

`CC[C@H]1OC(=O)[C@H](C)[C@@H](O[C@H]2CC(C)(OC)[C@@H](O)[C@H](C)O2)[C@H](C)[C@@H](O[C@@H]2O[C@H](C)C[C@H](N(C)C)[C@H]2O)[C@](C)(OC)C[C@@H](C)C(=O)[C@H](C)[C@H]2N(NC/C=C/c3ccccc3)C(=O)O[C@]12C` (stereo partly shown) [A4′]: the MIC worked out at 7 µM (≈ 6.33 µg/mL).

Turning to `CC[C@H]1OC(=O)[C@H](C)[C@@H](O[C@H]2CC(C)(OC)[C@@H](O)[C@H](C)O2)[C@H](C)[C@@H](O[C@@H]2O[C@H](C)C[C@H](N(C)C)[C@H]2O)[C@](C)(OC)C[C@@H](C)C(=O)[C@H](C)[C@H]2N(NC/C=C/c3cc(OC)c(O)c(OC)c3)C(=O)O[C@]12C` (stereo partly shown) [A6′], the MIC worked out at 10.2 µM (≈ 10 µg/mL).

Turning to `CC[C@H]1OC(=O)[C@H](C)[C@@H](O[C@H]2CC(C)(OC)[C@@H](O)[C@H](C)O2)[C@H](C)[C@@H](O[C@@H]2O[C@H](C)C[C@H](N(C)C)[C@H]2O)[C@](C)(OC)C[C@@H](C)C(=O)[C@H](C)[C@H]2N(NCc3ccc([N+](=O)[O-])o3)C(=O)O[C@]12C` (stereo partly shown) [A8′], the MIC was above 9 µM.

Turning to `CC[C@H]1OC(=O)[C@H](C)[C@@H](O[C@H]2CC(C)(OC)[C@@H](O)[C@H](C)O2)[C@H](C)[C@@H](O[C@@H]2O[C@H](C)C[C@H](N(C)C)[C@H]2O)[C@](C)(OC)C[C@@H](C)C(=O)[C@H](C)[C@H]2N(NCc3ccoc3)C(=O)O[C@]12C` (stereo partly shown) [A10′], the MIC was above 7 µM.

On to `CC[C@H]1OC(=O)[C@H](C)[C@@H](O[C@H]2CC(C)(OC)[C@@H](O)[C@H](C)O2)[C@H](C)[C@@H](O[C@@H]2O[C@H](C)C[C@H](N(C)C)[C@H]2O)[C@](C)(OC)C[C@@H](C)C(=O)[C@H](C)[C@H]2N(NCc3cc(C(=O)OC)c(C)o3)C(=O)O[C@]12C` (stereo partly shown) [A12′], for which the minimum inhibitory concentration (MIC) was above 12 µM.

In the case of `CCOC(=O)c1cc(-c2ccc(Cl)cc2)oc1CNN1C(=O)O[C@]2(C)[C@@H](CC)OC(=O)[C@H](C)[C@@H](O[C@H]3CC(C)(OC)[C@@H](O)[C@H](C)O3)[C@H](C)[C@@H](O[C@@H]3O[C@H](C)C[C@H](N(C)C)[C@H]3O)[C@](C)(OC)C[C@@H](C)C(=O)[C@H](C)[C@@H]12` (stereo partly shown) [B1′], the MIC is above 18 µM.

In the case of `CC[C@H]1OC(=O)[C@H](C)[C@@H](O[C@H]2CC(C)(OC)[C@@H](O)[C@H](C)O2)[C@H](C)[C@@H](O[C@@H]2O[C@H](C)C[C@H](N(C)C)[C@H]2O)[C@](C)(OC)C[C@@H](C)C(=O)[C@H](C)[C@H]2N(NCc3nccn3C)C(=O)O[C@]12C` (stereo partly shown) [B3′], the MIC is above 18 µM.

Take `CC[C@H]1OC(=O)[C@H](C)[C@@H](O[C@H]2CC(C)(OC)[C@@H](O)[C@H](C)O2)[C@H](C)[C@@H](O[C@@H]2O[C@H](C)C[C@H](N(C)C)[C@H]2O)[C@](C)(OC)C[C@@H](C)C(=O)[C@H](C)[C@H]2N(NCc3cncn3C)C(=O)O[C@]12C` (stereo partly shown) [B5′]: the MIC was above 27 µM.

Regarding `CCCCc1nc(CNN2C(=O)O[C@]3(C)[C@@H](CC)OC(=O)[C@H](C)[C@@H](O[C@H]4CC(C)(OC)[C@@H](O)[C@H](C)O4)[C@H](C)[C@@H](O[C@@H]4O[C@H](C)C[C@H](N(C)C)[C@H]4O)[C@](C)(OC)C[C@@H](C)C(=O)[C@H](C)[C@@H]23)c(Cl)[nH]1` (stereo partly shown) [B7′], the MIC is listed as above 19 µM.

For the compound `CC[C@H]1OC(=O)[C@H](C)[C@@H](O[C@H]2CC(C)(OC)[C@@H](O)[C@H](C)O2)[C@H](C)[C@@H](O[C@@H]2O[C@H](C)C[C@H](N(C)C)[C@H]2O)[C@](C)(OC)C[C@@H](C)C(=O)[C@H](C)[C@H]2N(NCc3c(C)[nH]c4ccc([N+](=O)[O-])cc34)C(=O)O[C@]12C` (stereo partly shown) [B11′], the MIC was above 22 µM.

Turning to `CC[C@H]1OC(=O)[C@H](C)[C@@H](O[C@H]2CC(C)(OC)[C@@H](O)[C@H](C)O2)[C@H](C)[C@@H](O[C@@H]2O[C@H](C)C[C@H](N(C)C)[C@H]2O)[C@](C)(OC)C[C@@H](C)C(=O)[C@H](C)[C@H]2N(NCc3cn(Cc4ccccc4)c4ccccc34)C(=O)O[C@]12C` (stereo partly shown) [C2′], the MIC was 7 µM (≈ 7.05 µg/mL).

`CC[C@H]1OC(=O)[C@H](C)[C@@H](O[C@H]2CC(C)(OC)[C@@H](O)[C@H](C)O2)[C@H](C)[C@@H](O[C@@H]2O[C@H](C)C[C@H](N(C)C)[C@H]2O)[C@](C)(OC)C[C@@H](C)C(=O)[C@H](C)[C@H]2N(NCc3cn(S(=O)(=O)c4ccc(C)cc4)c4ccccc34)C(=O)O[C@]12C` (stereo partly shown) [C4′]: the MIC is on record as 11 µM (≈ 11.8 µg/mL).

Regarding `CC[C@H]1OC(=O)[C@H](C)[C@@H](O[C@H]2CC(C)(OC)[C@@H](O)[C@H](C)O2)[C@H](C)[C@@H](O[C@@H]2O[C@H](C)C[C@H](N(C)C)[C@H]2O)[C@](C)(OC)C[C@@H](C)C(=O)[C@H](C)[C@H]2N(NCc3c(C)noc3C)C(=O)O[C@]12C` (stereo partly shown) [C6′], the MIC was above 17 µM.

Take `CC[C@H]1OC(=O)[C@H](C)[C@@H](O[C@H]2CC(C)(OC)[C@@H](O)[C@H](C)O2)[C@H](C)[C@@H](O[C@@H]2O[C@H](C)C[C@H](N(C)C)[C@H]2O)[C@](C)(OC)C[C@@H](C)C(=O)[C@H](C)[C@H]2N(NCc3c(-c4ccccc4)noc3C)C(=O)O[C@]12C` (stereo partly shown) [C10′]: the MIC was found to be 12 µM (≈ 11.5 µg/mL).

On to `CC[C@H]1OC(=O)[C@H](C)[C@@H](O[C@H]2CC(C)(OC)[C@@H](O)[C@H](C)O2)[C@H](C)[C@@H](O[C@@H]2O[C@H](C)C[C@H](N(C)C)[C@H]2O)[C@](C)(OC)C[C@@H](C)C(=O)[C@H](C)[C@H]2N(/N=C/c3c(C)noc3-c3ccccc3)C(=O)O[C@]12C` (stereo partly shown) [C12′], for which the MIC is reported as 9 µM (≈ 8.61 µg/mL).

The experiment is the same for the next values; noted with them: Table 4; read-out: MIC.
On to `CCC1OC(=O)C(C)C(OC2CC(C)(OC)C(O)C(C)O2)C(C)C(OC2OC(C)CC(N(C)C)C2O)C(C)(OC)CC(C)C(=NOCCCCF)C(C)C(O)C1(C)O` (stereo not shown) [Compound 1DP79], for which the MIC came to 3.5 µM (≈ 2.93 µg/mL).

`CCC1OC(=O)C(C)C(OC2CC(C)(OC)C(O)C(C)O2)C(C)C(OC2OC(C)CC(N(C)C)C2O)C(C)(OC)CC(C)C(=NOCCC2OCCO2)C(C)C(O)C1(C)O` (stereo not shown) [Compound 1GY11]: the MIC was determined as 29.5 µM (≈ 25.5 µg/mL).

Staying with this experiment, now noted: Table 5; read-out: MIC.
With `C#CCON=C1C(C)CC(C)(OC)C(OC2OC(C)CC(N(C)C)C2O)C(C)C(OC2CC(C)(OC)C(O)C(C)O2)C(C)C(=O)OC(CC)C(C)(O)C(O)C1C` (stereo not shown) [Compound 1GY17], the MIC came out at 13 µM (≈ 10.4 µg/mL).

For the compound `CCC1OC(=O)C(C)C(OC2CC(C)(OC)C(O)C(C)O2)C(C)C(OC2OC(C)CC(N(C)C)C2O)C(C)(OC)CC(C)C(=NOC(C)(C)CC(C)=O)C(C)C(O)C1(C)O` (stereo not shown) [Compound 1GY27], the MIC was 31 µM (≈ 26.7 µg/mL).

Regarding `CCC1OC(=O)C(C)C(OC2CC(C)(OC)C(O)C(C)O2)C(C)C(OC2OC(C)CC(N(C)C)C2O)C(C)(OC)CC(C)C(=NOCC(=O)c2ccc(-c3ccccc3)cc2)C(C)C(O)C1(C)O` (stereo not shown) [Compound 1GY53], the MIC is recorded as 6.8 µM (≈ 6.51 µg/mL).

`CCC1OC(=O)C(C)C(OC2CC(C)(OC)C(O)C(C)O2)C(C)C(OC2OC(C)CC(N(C)C)C2O)C(C)(O)CC(C)C(=NN=Cc2ccc(C(F)(F)F)cc2)C(C)C(O)C1(C)O` (stereo not shown) [Compound 1OK95]: the MIC turned out to be 27 µM (≈ 24.4 µg/mL).

On to `CCC1OC(=O)C(C)C(OC2CC(C)(OC)C(O)C(C)O2)C(C)C(OC2OC(C)CC(N(C)C)C2O)C(C)(O)CC(C)C(=NNC2CCCCC2)C(C)C(O)C1(C)O` (stereo not shown) [Compound 1OK107], for which the MIC was 3.9 µM (≈ 3.24 µg/mL).

For `CCC1OC(=O)C(C)C(OC2CC(C)(OC)C(O)C(C)O2)C(C)C(OC2OC(C)CC(N(C)C)C2O)C(C)(O)CC(C)C(=NN=Cc2cccc(OC(F)(F)F)c2)C(C)C(O)C1(C)O` (stereo not shown) [Compound 1OK109], the MIC came to 11 µM (≈ 10.1 µg/mL).

In the case of `CCC1OC(=O)C(C)C(OC2CC(C)(OC)C(O)C(C)O2)C(C)C(OC2OC(C)CC(N(C)C)C2O)C(C)(O)CC(C)C(=NN=Cc2cccc(C(F)(F)F)c2)C(C)C(O)C1(C)O` (stereo not shown) [Compound 1OK119], the MIC was found to be 16 µM (≈ 14.5 µg/mL).

`CCC1OC(=O)C(C)C(OC2CC(C)(OC)C(O)C(C)O2)C(C)C(OC2OC(C)CC(N(C)C)C2O)C(C)(O)CC(C)C(=NN=Cc2ccc(SC)cc2)C(C)C(O)C1(C)O` (stereo not shown) [Compound 1OK121]: the MIC is given as 12 µM (≈ 10.6 µg/mL).

With `CCC1OC(=O)C(C)C(OC2CC(C)(OC)C(O)C(C)O2)C(C)C(OC2OC(C)CC(N(C)C)C2O)C(C)(O)CC(C)C(=NNCc2ccc(C(F)(F)F)cc2)C(C)C(O)C1(C)O` (stereo not shown) [Compound 1OK133], the MIC was determined as 25 µM (≈ 22.7 µg/mL).

As for `CCC1OC(=O)C(C)C(OC2CC(C)(OC)C(O)C(C)O2)C(C)C(OC2OC(C)CC(N(C)C)C2O)C(C)(O)CC(C)C(=NNCc2ccc(SC)cc2)C(C)C(O)C1(C)O` (stereo not shown) [Compound 1OK137], the MIC came to 47 µM (≈ 41.6 µg/mL).

On to `CCCCCCNC(=O)OC1C(OC2C(C)C(OC3CC(C)(OC)C(O)C(C)O3)C(C)C(=O)OC(CC)C(C)(O)C(O)C(C)C(=O)C(C)CC2(C)OC)OC(C)CC1N(C)C` (stereo not shown) [Compound 1SH88], for which the MIC is 15 µM (≈ 13.1 µg/mL).

`CCC1OC(=O)C(C)C(O)C(C)C(OC2OC(C)CC(N(C)C)C2O)C(C)(OC)CC(C)C(=NOCCC2CCCCC2)C(C)C(O)C1(C)O` (stereo not shown) [Compound 2GY5]: the minimum inhibitory concentration (MIC) turned out to be 3.1 µM (≈ 2.22 µg/mL).
